Test results taken from patent US5980913A, “Peptides having immunomodulatory activity” (Biochem Pharma, Inc., priority 1994, dated 1999).
Where a SMILES comes first, the peptide text is derived from it. [ ]: non-standard residue; d: D form.

What was measured:
[1] = tested on: C57BL/6 lymphocytes with irradiated DBA/2 cells; test: Mixed lymphocyte reaction (MLR), 3H thymidine uptake; type: cell-based, mice
Description: 1. Cytotoxic T Lymphocytes (CTL) Mixed Lymphocyte Reaction (MLR) and Mitogenic Response Assays
The protocols used are described in Hudson L., Haay F., Pratical immunology, 3rd edition, Blackwell, Scientific publications, Oxford 1989, p. 158-162, and p.447.
Lymphocytes were isolated from C57BL/6 mice and DBA/2 mice in accordance to techniques well known in the art. Cell concentration was adjusted to 10×10^6 cell/ml for each assay. The cells isolated from DBA/2 mice were irradiated with 3000 Rads.
In a 6 well plate, each well was set up with:
The cells were incubated for five days at 37° C. in 5% CO2, after which CTL and MLR assays were performed.
b) Mixed Lymphocyte Reaction (MLR)
Mixed lymphocyte reaction is an in vitro counterpart of the allograft rejection. Briefly, lymphocyte activation (mitotic response) is obtained when cells from two inbred strains or from two outbred individuals of any species are mixed in in vitro culture. To have a unidirectional response, the proliferation of either cell type may be blocked with X-ray irradiation or mitomycin C treatment. After 4 days incubation, ^3 H thymidine uptake and cytotoxicity assays (CTL) were performed. The cells were then resuspended and 100 μl of cell suspension was deposited in each well of a 96 well plate. 1 μCi of tritiated thymidine was added for 6 hours. After incubation, the cells were then harvested and counted using a Microbeta counter.

T cells = test: Activation of T cells by mitogenic proliferation (ConA, PHA); type: cell-based, C57BL/6 mice; settings: concentration not given; 0 not defined
Description: (§1) c) Activation of T or B cells by Mitogenic Proliferation
(§2) A mitogenic lectin (mitogen) is a glycoprotein which binds and cross-links specific cells surface carbohydrate determinants, and will polyclonally stimulate lymphoid cells. Lymphocyte activation by either antigens or mitogens results in intracellular changes and the subsequent development into a lymphoblast. Mitogenic stimulation of lymphocytes in vitro is believed to mimic the series of events which occur in vivo following their stimulation by specific antigens. PHA and ConA; PWM and LPS mitogens can be used as a measurement of T cell and B cell activity, respectively. Briefly, the spleen mononuclear leukocytes from C57BL/6 mice are incubated in the presence or absence of mitogens with or without candidate drugs. After 72 hours or 5 days, ^3 H-thymidine incorporation is recorded as an indication of cell proliferation.
(§3) Lymphocytes were isolated from mice spleen or human blood in accordance to methods well known in the art. 100 μl of cell suspension of 2×10^6 cells/ml was added per well (2x10^5 cells/well) and incubated in the presence of lectin at the following concentrations:
PHA=0.01% to 0.001% final concentration
(§4) Cells were incubated for 3 days with PHA or ConA, or 5 days with PWM or LPS. 1 μCi of tritiated thymidine was added to each well for the last 6 hours (or 0.5 μCi for 18 hrs). The cells were harvested in a cell Harvester (Tortech®) and counted in a Beta counter.

B cells = test: Activation of B cells by mitogenic proliferation (LPS, PWM); type: cell-based, C57BL/6 mice
Description: as §1, §2, §3
PWM=0.2 to 0.02% final concentration
as §4

Toxicity in vivo = test: Toxicity in vivo
Description: peptide #1 (SEQ. ID NO:1) appears to be non-toxic.

[2] = concentration not given, 0 not defined

Row | SMILES | MLR [1, 2] | Activation of T Cells, ConA (T cells) | Activation of T Cells, PHA (T cells) | Activation of B Cells, PWM (B cells; 10^-6 - 10^-4 M) | Activation of B Cells, LPS (B cells; 10^-10 - 10^-4 M) | stimulation of B cells in vitro (in words) (B cells; summary of Table 1) | toxicity in vivo (in words) (Toxicity in vivo; animals treated with 50, 100, 200, and 300 mg/kg) | MLR ([1]; 10^-7 M) | Activation of B Cells, LPS (B cells; [2]) | Activation of B Cells, PWM (B cells; [2]) | gross pathological observations (in words) (Toxicity in vivo; in vivo) | toxic effect (in words) (Toxicity in vivo; up to 200 mg/kg)
1 | NCCCC[C@H](N)C(=O)N[C@@H](CC(N)=O)C(=O)N1CCC[C@H]1C(=O)N[C@@H](Cc1ccc(O)cc1)C(=O)O [PEPTIDE #1, H-Lys-Asn-Pro-Tyr-OH] (H-KNPY-OH) | 0 | 0 | 0 | 1.7 - 4 × | 1.9 - 3.6 × | stimulates CTL's and B cells | No apparent toxicity |  |  |  |  | 
2 | NCCCC[C@@H](N)C(=O)N[C@@H](CC(N)=O)C(=O)N1CCC[C@H]1C(=O)N[C@@H](Cc1ccc(O)cc1)C(=O)O [PEPTIDE #5, H-(D-Lys)-Asn-Pro-Tyr-OH] (H-[dK]NPY-OH) |  | 0 | 0 |  |  |  |  | 2.1 × | 0 | 0 | no sign of irritation | No toxic effect
